Assay results: US20230014445A1, “ALLOSTERIC CHROMENONE INHIBITORS OF PHOSPHOINOSITIDE 3-KINASE (PI3K) FOR THE TREATMENT OF DISEASE” (Petra Pharma Corporation, priority 2021, published 2023)

Experiments:
[1] = target: T1, human full length PIK3KA H1047R mutant (p110α/p85α complex) (Homo sapiens, UniProt P42336, H1047R); experiment: PI3K-Alpha Kinase (PIK3CA) biochemical activity, H1047R mutant (ADP-Glo); details: 20 uM ATP
T1 construct: Recombinant, catalytically active human full length PIK3KA Wild-type and H1047R mutant were purchased; 6xHis (N); purchased EMD Millipore Sigma 14-792M
T1 sequence (P42336 whole entry H1047R): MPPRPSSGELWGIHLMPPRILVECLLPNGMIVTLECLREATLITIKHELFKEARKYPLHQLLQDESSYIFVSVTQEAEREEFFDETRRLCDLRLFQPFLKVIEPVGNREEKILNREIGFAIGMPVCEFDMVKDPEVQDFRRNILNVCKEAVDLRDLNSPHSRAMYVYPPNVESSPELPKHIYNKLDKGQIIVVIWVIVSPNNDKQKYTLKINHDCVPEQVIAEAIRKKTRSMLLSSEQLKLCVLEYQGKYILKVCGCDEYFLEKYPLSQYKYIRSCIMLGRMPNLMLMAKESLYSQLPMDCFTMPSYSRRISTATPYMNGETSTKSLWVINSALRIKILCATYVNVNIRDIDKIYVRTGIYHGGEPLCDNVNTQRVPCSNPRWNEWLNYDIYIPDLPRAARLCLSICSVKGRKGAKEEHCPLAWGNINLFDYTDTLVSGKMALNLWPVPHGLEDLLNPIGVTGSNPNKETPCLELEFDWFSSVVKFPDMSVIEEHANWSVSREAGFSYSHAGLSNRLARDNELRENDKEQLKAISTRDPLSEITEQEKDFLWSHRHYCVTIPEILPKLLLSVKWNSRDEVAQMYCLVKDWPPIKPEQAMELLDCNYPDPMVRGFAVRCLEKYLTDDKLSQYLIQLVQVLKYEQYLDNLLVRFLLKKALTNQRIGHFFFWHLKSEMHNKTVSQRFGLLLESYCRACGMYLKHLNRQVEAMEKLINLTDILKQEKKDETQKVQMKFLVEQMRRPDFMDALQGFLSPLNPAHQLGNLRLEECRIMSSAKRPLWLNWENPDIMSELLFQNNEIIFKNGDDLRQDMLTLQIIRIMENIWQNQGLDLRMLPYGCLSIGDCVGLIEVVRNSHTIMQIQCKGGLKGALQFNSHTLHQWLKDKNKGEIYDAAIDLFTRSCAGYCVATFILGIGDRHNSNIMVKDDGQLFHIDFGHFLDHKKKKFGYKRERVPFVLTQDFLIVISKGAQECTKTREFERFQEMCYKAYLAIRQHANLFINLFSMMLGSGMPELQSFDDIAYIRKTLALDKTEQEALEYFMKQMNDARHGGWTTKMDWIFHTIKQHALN
T1 sequence (P27986 whole entry partner): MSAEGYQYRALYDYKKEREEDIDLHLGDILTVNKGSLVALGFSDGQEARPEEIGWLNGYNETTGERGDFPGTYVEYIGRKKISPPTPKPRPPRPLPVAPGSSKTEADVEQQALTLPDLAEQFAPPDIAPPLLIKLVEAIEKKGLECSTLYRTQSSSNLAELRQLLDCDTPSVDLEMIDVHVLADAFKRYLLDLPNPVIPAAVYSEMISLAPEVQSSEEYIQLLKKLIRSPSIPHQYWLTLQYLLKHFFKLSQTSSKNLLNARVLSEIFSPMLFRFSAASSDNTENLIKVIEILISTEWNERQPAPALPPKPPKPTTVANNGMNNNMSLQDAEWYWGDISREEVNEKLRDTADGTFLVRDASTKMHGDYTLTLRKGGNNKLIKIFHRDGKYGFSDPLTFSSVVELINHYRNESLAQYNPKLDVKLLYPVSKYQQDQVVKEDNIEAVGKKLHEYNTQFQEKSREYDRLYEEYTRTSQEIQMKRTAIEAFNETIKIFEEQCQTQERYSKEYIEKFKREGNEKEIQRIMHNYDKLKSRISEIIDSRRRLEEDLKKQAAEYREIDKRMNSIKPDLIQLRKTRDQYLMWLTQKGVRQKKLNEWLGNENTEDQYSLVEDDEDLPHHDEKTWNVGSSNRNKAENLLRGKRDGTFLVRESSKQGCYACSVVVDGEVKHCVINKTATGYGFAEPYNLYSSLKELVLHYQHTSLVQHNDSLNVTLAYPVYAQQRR
Summary of the method: (§1)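 ADP formation, measured by ADP-Glo luminescence after reaction to about 10% ATP conversion at 27° C., gives 10-point 4-parameter IC50 curves normalized to no-enzyme and DMSO controls. Lipid substrate was PIP2diC8 or Soy PI at 50 uM, with 20 uM ATP. WT or H1047R p110α/p85α complex (1-5 nM) was preincubated 1 h with compound.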

[2] = target: T2, human full length PIK3KA Wild-type (p110α/p85α complex) (Homo sapiens, UniProt P42336); experiment: PI3K-Alpha Kinase (PIK3CA) biochemical activity, wild-type (ADP-Glo); details: 20 uM ATP
T2 construct: Recombinant, catalytically active human full length PIK3KA Wild-type and H1047R mutant were purchased; 6xHis (N); purchased EMD Millipore Sigma 14-602M
Summary of the method: as §1

[3] = target: PI3K-α (PIK3CA) in MDA-MB-453 cells (Homo sapiens, UniProt P42336); experiment: PI3K-Alpha Kinase (PIK3CA) activity in vitro cell based assay (AlphaLisa SureFire); details: 0% FBS, 3 hours treatment, read-out: PI3K-α (PIK3CA) in vitro cell based assay IC50
PI3K-α (PIK3CA) in MDA-MB-453 cells, sequence (P42336 whole entry): as the sequence (P42336 whole entry H1047R) above, with R1047H counted along it
PI3K-α (PIK3CA) in MDA-MB-453 cells, sequence (P27986 2-724, further chain): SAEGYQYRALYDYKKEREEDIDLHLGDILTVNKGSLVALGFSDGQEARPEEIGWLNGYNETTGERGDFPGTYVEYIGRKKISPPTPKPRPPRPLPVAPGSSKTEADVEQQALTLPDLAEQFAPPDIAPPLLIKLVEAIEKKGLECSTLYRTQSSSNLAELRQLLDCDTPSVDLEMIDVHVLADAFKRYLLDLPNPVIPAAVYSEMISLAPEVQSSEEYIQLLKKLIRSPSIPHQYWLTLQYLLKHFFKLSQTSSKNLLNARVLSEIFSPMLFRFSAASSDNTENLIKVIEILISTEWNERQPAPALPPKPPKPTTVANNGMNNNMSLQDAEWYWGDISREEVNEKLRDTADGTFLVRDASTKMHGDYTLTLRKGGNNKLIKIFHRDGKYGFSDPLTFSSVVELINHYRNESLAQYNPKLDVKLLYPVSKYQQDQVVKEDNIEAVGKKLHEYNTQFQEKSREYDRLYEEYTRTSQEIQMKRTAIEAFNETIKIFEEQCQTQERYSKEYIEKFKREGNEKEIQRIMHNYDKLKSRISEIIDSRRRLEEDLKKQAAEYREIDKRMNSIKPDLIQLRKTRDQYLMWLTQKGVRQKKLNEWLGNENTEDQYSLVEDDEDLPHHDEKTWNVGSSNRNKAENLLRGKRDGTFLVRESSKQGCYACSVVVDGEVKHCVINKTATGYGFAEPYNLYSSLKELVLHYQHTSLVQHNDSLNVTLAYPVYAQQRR
Summary of the method: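 Serum-free MDA-MB-453 cells with 1 μg/mL insulin treated 3 h with a 10-point compound series in 0.3% DMSO; lysates analysed by AlphaLisa SureFire. Relative IC50 from 4-parameter fit of % inhibition versus DMSO (max) and 1 μM GDC-0032 (min) controls, duplicates.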

| SMILES | IC50 ([1]; Soy PI lipid substrate) [nM] | IC50 ([2]; Soy PI lipid substrate) [nM] | IC50 [3] [nM] | IC50 ([1]; PIP2diC8 lipid substrate) [nM] | IC50 ([2]; PIP2diC8 lipid substrate) [nM] |
| --- | --- | --- | --- | --- | --- |
| Cc1cc(C(C)Nc2ccccc2C(=O)O)c2oc(-c3cnc(N(C)C)s3)c(C)c(=O)c2c1 (single isomer, unassigned; isomer 1) [Example 130, 2-[1-[2-[2-(Dimethylamino)thiazol-5-yl]-3,6-dimethyl-4-oxo-chromen-8-yl]ethylamino]benzoic acid, Isomer 1] | < 500 | 500 to 1000 | < 50 | – | – |
| Cc1cc(C(C)Nc2cccnc2C(=O)O)c2oc(-c3cncc(F)c3)c(C)c(=O)c2c1 (single isomer, unassigned; isomer 1) [Example 131, 3-[1-[2-(5-Fluoro-3-pyridyl)-3,6-dimethyl-4-oxo-chromen-8-yl]ethylamino]pyridine-2-carboxylic acid, Isomer 1] | 1000 to 5000 | > 10000 | 50 to 100 | – | – |
| Cc1cc(C(C)Nc2ccc(Cl)cc2C(=O)O)c2oc(-c3cccnc3)c(C)c(=O)c2c1 (single isomer, unassigned; isomer 1) [Example 132, 5-Chloro-2-[1-[3,6-dimethyl-4-oxo-2-(3-pyridyl)chromen-8-yl]ethylamino]benzoic acid, Isomer 1] | < 500 | 500 to 1000 | < 50 | – | – |
| COc1cccc(-c2cc(=O)c3cc(C)cc(C(C)Nc4ccccc4C(=O)O)c3o2)n1 (single isomer, unassigned; isomer 2) [Example 22, 2-[1-[2-(6-Methoxy-2-pyridyl)-6-methyl-4-oxo-chromen-8-yl]ethylamino]benzoic acid, Isomer 2] | < 500 | 1000 to 5000 | 50 to 100 | – | – |
| Cc1cc(C(C)Nc2ccccc2C(=O)O)c2oc(-c3nccnc3C)cc(=O)c2c1 (single isomer, unassigned; isomer 2) [Example 29, 2-[1-[6-Methyl-2-(3-methylpyrazin-2-yl)-4-oxo-chromen-8-yl]ethylamino]benzoic acid, Isomer 2] | < 500 | 5000 to 10000 | 100 to 500 | – | – |
| Cc1cc(C(C)Nc2ccccc2C(=O)O)c2oc(-c3cnc(C)nc3)cc(=O)c2c1 (single isomer, unassigned; isomer 2) [Example 33, 2-[1-[6-Methyl-2-(2-methylpyrimidin-5-yl)-4-oxo-chromen-8-yl]ethylamino]benzoic acid, Isomer 2] | – | – | > 500 | > 10000 | > 10000 |
| Cc1cc(C(C)Nc2ccccc2C(=O)O)c2oc(-c3ccc(F)nc3)cc(=O)c2c1 (single isomer, unassigned; isomer 2) [Example 36, 2-[1-[2-(6-Fluoro-3-pyridyl)-6-methyl-4-oxo-chromen-8-yl]ethylamino]benzoic acid, Isomer 2] | < 500 | 5000 to 10000 | < 50 | – | – |
| Cc1cc(C(C)Nc2ccccc2C(=O)O)c2oc(-c3cnc(OC(C)C)nc3)cc(=O)c2c1 (single isomer, unassigned; isomer 2) [Example 42, 2-[1-[2-(2-Isopropoxypyrimidin-5-yl)-6-methyl-4-oxo-chromen-8-yl]ethylamino]benzoic acid, Isomer 2] | < 500 | 5000 to 10000 | 50 to 100 | – | – |
| COc1cccc(-c2nnc(-c3cc(=O)c4cc(C)cc(C(C)Nc5ccccc5C(=O)O)c4o3)o2)c1 (single isomer, unassigned; isomer 2) [Example 84, 2-[1-[2-[5-(3-Methoxyphenyl)-1,3,4-oxadiazol-2-yl]-6-methyl-4-oxo-chromen-8-yl]ethylamino]benzoic acid, Isomer 2] | < 500 | 1000 to 5000 | 100 to 500 | – | – |
| Cc1cc(C(C)Nc2cccc(F)c2C(=O)O)c2oc(-c3ccccn3)cc(=O)c2c1 (single isomer, unassigned; isomer 2) [Example 111, 2-Fluoro-6-[1-[6-methyl-4-oxo-2-(2-pyridyl)chromen-8-yl]ethylamino]benzoic acid, Isomer 2] | 1000 to 5000 | 1000 to 5000 | > 500 | – | – |
| Cc1cc(C(C)Nc2cccc(F)c2C(=O)O)c2oc(-c3cnn(-c4ccc(C#N)cc4)c3)cc(=O)c2c1 (single isomer, unassigned; isomer 2) [Example 113, 2-[1-2-[1-(4-Cyanophenyl)pyrazol-4-yl]-6-methyl-4-oxo-chromen-8-yl]ethylamino]-6-fluoro-benzoic acid, Isomer 2] | < 500 | 1000 to 5000 | 100 to 500 | – | – |
